Test results published in ChEMBL document CHEMBL3885861, “Open TG-GATES”.

Species: Rattus norvegicus
Assay: Open TG-GATES - Regimen: Single
Type: toxicity, organism-based, Sprague-Dawley
Design: regimen Single, gender Male, age 6 weeks
Conditions: in vivo, po, 10 mg/kg, route gavage, dose level Middle; for APTT / Bas / Eos / Fbg / Hb / Ht / Lym / MCH / MCHC / MCV / Mono / Neu / PT / Plat / RBC / Ret / WBC: tissue Blood; for KIDNEY_L / KIDNEY_R / KIDNEY_TOTAL: tissue Kidney; for LIVER: tissue Liver; for A/G / ALP / ALT / AST / BUN / CRE / Ca / Cl / DBIL / GLC / IP / K / LDH / Na / PL / RALB / TBIL / TC / TG / TP / gamma-GTP: tissue Plasma

SMILES: C=CCO [ALLYL ALCOHOL]
- TERMINAL_BW (3 h): 220.3 g
- APTT (3 h): 20.3 s
- Bas (3 h): 0%
- Eos (3 h): 1%
- Fbg (3 h): 217.8 mg/dL
- Hb (3 h): 13.7 g/dL
- Ht (3 h): 39.5%
- Lym (3 h): 79.4%
- MCH (3 h): 21.3 pg
- MCHC (3 h): 34.9%
- MCV (3 h): 61 fL
- Mono (3 h): 2.8%
- Neu (3 h): 16.8%
- PT (3 h): 12.5 s
- Plat (3 h): 140.4 x10_4/uL
- RBC (3 h): 648.2 x10_4/ul
- Ret (3 h): 6.3%
- WBC (3 h): 94.5 x10_2/uL
- KIDNEY_L (3 h): 1 g
- KIDNEY_R (3 h): 1 g
- KIDNEY_TOTAL (3 h): 2 g
- LIVER (3 h): 9.9 g
- A/G (3 h): 1.5
- ALP (3 h): 1147.4 IU/L
- ALT (3 h): 37.6 IU/L
- AST (3 h): 69.6 IU/L
- BUN (3 h): 10.2 mg/dL
- CRE (3 h): 0.4 mg/dL
- Ca (3 h): 10.6 mg/dL
- Cl (3 h): 100.2 meq/L
- DBIL (3 h): 0.3 mg/dL
- GLC (3 h): 197.8 mg/dL
- IP (3 h): 8.6 mg/dL
- K (3 h): 3.7 meq/L
- LDH (3 h): 209.2 IU/L
- Na (3 h): 139.4 meq/L
- PL (3 h): 170.4 mg/dL
- RALB (3 h): 3.4 g/dL
- TBIL (3 h): 0.4 mg/dL
- TC (3 h): 77 mg/dL
- TG (3 h): 204.8 mg/dL
- TP (3 h): 5.6 g/dL
- gamma-GTP (3 h): 1 IU/L
- TERMINAL_BW (6 h): 220.1 g
- APTT (6 h): 19.1 s
- Bas (6 h): 0%
- Eos (6 h): 1%
- Fbg (6 h): 226.8 mg/dL
- Hb (6 h): 13.2 g/dL
- Ht (6 h): 38.1%
- Lym (6 h): 76%
- MCH (6 h): 22 pg
- MCHC (6 h): 34.5%
- MCV (6 h): 63.7 fL
- Mono (6 h): 3.2%
- Neu (6 h): 19.2%
- PT (6 h): 12.1 s
- Plat (6 h): 132 x10_4/uL
- RBC (6 h): 598 x10_4/ul
- Ret (6 h): 7.1%
- WBC (6 h): 99.4 x10_2/uL
- KIDNEY_L (6 h): 1 g
- KIDNEY_R (6 h): 1 g
- KIDNEY_TOTAL (6 h): 1.9 g
- LIVER (6 h): 9.8 g
- A/G (6 h): 1.4
- ALP (6 h): 1136.8 IU/L
- ALT (6 h): 35 IU/L
- AST (6 h): 74 IU/L
- BUN (6 h): 8 mg/dL
- CRE (6 h): 0.4 mg/dL
- Ca (6 h): 10.7 mg/dL
- Cl (6 h): 102.4 meq/L
- DBIL (6 h): 0.2 mg/dL
- GLC (6 h): 200.2 mg/dL
- IP (6 h): 9.1 mg/dL
- K (6 h): 3.8 meq/L
- LDH (6 h): 221.4 IU/L
- Na (6 h): 141.2 meq/L
- PL (6 h): 164.2 mg/dL
- RALB (6 h): 3.2 g/dL
- TBIL (6 h): 0.2 mg/dL
- TC (6 h): 77.8 mg/dL
- TG (6 h): 114.4 mg/dL
- TP (6 h): 5.5 g/dL
- gamma-GTP (6 h): 1.2 IU/L
- TERMINAL_BW (9 h): 215.5 g
- APTT (9 h): 18 s
- Bas (9 h): 0%
- Eos (9 h): 1%
- Fbg (9 h): 217 mg/dL
- Hb (9 h): 13.3 g/dL
- Ht (9 h): 38.6%
- Lym (9 h): 80.4%
- MCH (9 h): 21.5 pg
- MCHC (9 h): 34.4%
- MCV (9 h): 62.6 fL
- Mono (9 h): 2.2%
- Neu (9 h): 16.2%
- PT (9 h): 12.3 s
- Plat (9 h): 125.1 x10_4/uL
- RBC (9 h): 617.6 x10_4/ul
- Ret (9 h): 6.5%
- WBC (9 h): 74.3 x10_2/uL
- KIDNEY_L (9 h): 0.9 g
- KIDNEY_R (9 h): 0.9 g
- KIDNEY_TOTAL (9 h): 1.9 g
- LIVER (9 h): 8.9 g
- A/G (9 h): 1.5
- ALP (9 h): 1058 IU/L
- ALT (9 h): 29 IU/L
- AST (9 h): 62 IU/L
- BUN (9 h): 9.2 mg/dL
- CRE (9 h): 0.3 mg/dL
- Ca (9 h): 10.5 mg/dL
- Cl (9 h): 101.8 meq/L
- DBIL (9 h): 0.07 mg/dL
- GLC (9 h): 203.8 mg/dL
- IP (9 h): 10.3 mg/dL
- K (9 h): 3.8 meq/L
- LDH (9 h): 163.4 IU/L
- Na (9 h): 140 meq/L
- PL (9 h): 132.6 mg/dL
- RALB (9 h): 3.3 g/dL
- TBIL (9 h): 0.1 mg/dL
- TC (9 h): 67 mg/dL
- TG (9 h): 60.6 mg/dL
- TP (9 h): 5.5 g/dL
- gamma-GTP (9 h): 0.8 IU/L
- TERMINAL_BW (24 h): 231.2 g
- APTT (24 h): 17.9 s
- Bas (24 h): 0%
- Eos (24 h): 1%
- Fbg (24 h): 232.2 mg/dL
- Hb (24 h): 13.5 g/dL
- Ht (24 h): 39.7%
- Lym (24 h): 79.2%
- MCH (24 h): 20.8 pg
- MCHC (24 h): 34%
- MCV (24 h): 61 fL
- Mono (24 h): 2.8%
- Neu (24 h): 16.6%
- PT (24 h): 11.9 s
- Plat (24 h): 127.4 x10_4/uL
- RBC (24 h): 650.8 x10_4/ul
- Ret (24 h): 6%
- WBC (24 h): 93.9 x10_2/uL
- KIDNEY_L (24 h): 1 g
- KIDNEY_R (24 h): 1 g
- KIDNEY_TOTAL (24 h): 1.9 g
- LIVER (24 h): 11.1 g
- A/G (24 h): 1.3
- ALP (24 h): 1042.2 IU/L
- ALT (24 h): 38.2 IU/L
- AST (24 h): 65 IU/L
- BUN (24 h): 15 mg/dL
- CRE (24 h): 0.4 mg/dL
- Ca (24 h): 10.8 mg/dL
- Cl (24 h): 102.4 meq/L
- DBIL (24 h): 0.08 mg/dL
- GLC (24 h): 203.6 mg/dL
- IP (24 h): 7.2 mg/dL
- K (24 h): 3.8 meq/L
- LDH (24 h): 200.4 IU/L
- Na (24 h): 140.2 meq/L
- PL (24 h): 152.6 mg/dL
- RALB (24 h): 3.1 g/dL
- TBIL (24 h): 0.1 mg/dL
- TC (24 h): 79.4 mg/dL
- TG (24 h): 99.4 mg/dL
- TP (24 h): 5.5 g/dL
- gamma-GTP (24 h): 1 IU/L
